Data on 2 compounds can be found in US7956194B2, “Microbiocidal (E.G. fungicidal) 1,2,3-triazole derivatives” (Syngenta Crop Protection, Inc., priority 2002, dated 2011).

What is called melting point is the temperature of the solid-liquid transition. `Cn1nc(C(=O)Nc2cc(Cl)ccc2-c2ccccc2)c(C(F)F)n1` [Compound 3.017, 5-difluoromethyl-2-methyl-2H-1,2,3-triazole-4-carboxylic acid (4-chloro-biphenyl-2-yl)-amide] registered a melting point of 155 to 156 °C.

Consider `CC(C)CC(C)c1ccccc1NC(=O)c1nn(C)nc1C(F)(F)F` (centres unmarked) [Compound 2.219, 2-methyl-5-trifluoromethyl-2H-1,2,3-triazole-4-carboxylic acid [2-(1,3-dimethyl-butyl)-phenyl]-amide], for which the melting point lay in the range of 94.6 to 95.4 °C.
